Measurements published in patent US7271239B2, “D-isomers of antimicrobial peptide” (The Research Foundation of State University of New York, priority 2004, dated 2007).
Read-outs that look alike come from different tables or passages of the source. Where a SMILES comes first, the peptide text is derived from it. Where no end group is shown, it is not given here. [ ]: non-standard residue; d: D form.

How the values were obtained:
S. mutans GS-5 biofilm = type: cell-based, Streptococcus mutans
Experimental: FIG. 11. Effect of peptides on the biofilm formation of S. mutans. The bacterial cells (5×10^5 cfu ml^−1) were inoculated in 96-well microtiter plate containing 25% BHIS medium with different concentration of each agent. Culture without agent was used as no treatment control. After incubation at 37° C. for 24 h, absorbance at 595 nm was recorded to assess the cell growth. Biofilm assay was performed by discarding the supernatants, washing with PBS, fixing with methanol, and staining with CV. The absorbance at 570 nm was recorded to assess the amount of biofilm. The activity was expressed as % of control. Data represents mean and SD of two independent tests with duplicates for each. Empty bar: growth, solid bar: biofilm.
The effect of the peptides on S. mutans in biofilm formation was examined by the microdilution method. This method is similar to the MIC assay for planktonic cells. Two-fold serial dilutions of each peptide were prepared in wells of polystyrene microtiter plates (Microtest tissue culture plate, 96 well, Falcon, Becton Dickinson and Company, N.J.) containing 25% BHI medium supplemented with 1% sucrose (BHIS) at a volume of 200 μl per well. The final concentration of the peptide ranged from 0.78 to 100 μM for each peptide. Chlorhexidine (CHX, 0.078 to 10 μg/mL) was used as the positive control, the medium without drug as the non-treated control, and the medium alone as the blank control. The cells suspension of S. mutans GS-5 was prepared as describe in MIC assay and 20 μl aliquot (final concentration of cells 5×10^5 CFU/mL) was inoculated to the wells of polystyrene microtiter plates. After incubation at 37° C. for 20 h, the culture supernatants from each well were decanted and planktonic cells were removed by washing with PBS, pH 7.2. The biofilm was fixed with methanol for 15 min and then air dried at room temperature. The biofilm was then stained with 0.1% (wt/vol) crystal violet (Sigma) for 5 min. and rinsed thoroughly with water until the control wells appeared colorless. Biofilm formation was quantified by the addition of 200 μl of 95% ethanol to each crystal violet-stained well. The plate was rocked at room temperature for 30 min and the absorbance at 595 nm (A595 nm) was determined with a microplate reader (BioRad Model 3550 Microplate Reader). Percentage of inhibition was calculated with the equation: (1−A595 nm of the test/A595nm of non-treated control)×100.

[1] = tested on: S. mutans GS-5 1-day biofilm; type: cell-based, Streptococcus mutans
Experimental: FIG. 12. Effect of peptides on 1-day biofilm of S. mutans. One-day mature biofilm was prepared as described above. BHI medium supplemented with 1% sucrose (BHIS) with peptides, prepared in another microtiter plate, was then transferred to the biofilm plate. After further incubation at 37° C. for 24 h, the biofilm was fixed, stained, and quantified as describe above. Data represents mean and SD of two independent tests performed in duplicated. Empty bar: growth, solid bar: biofilm.
To examine the effects of the peptides on 1-day mature biofilm, S. mutans GS-5 was inoculated into the wells of another polystyrene microtiter plate containing BHIS at a volume of 200 μl per well. After incubation at 37° C. for 24 h, the culture supernatants from each well were decanted and planktonic cells were removed by washing with PBS. BHIS containing 0.78 to 100 μM peptides, prepared in another microtiter plate, was then transferred to the 1-day biofilm plate, and further incubated at 37° C. for one day. The biofilm was fixed, stained, and quantified as describe above.

[2] = tested on: A. actinomycetemcomitans NCTC 9710; assay: microbe, parasite or virus in culture; type: cell-based; settings: for MBC / MIC: Aggregatibacter actinomycetemcomitans, NCTC9710
Source text: The bacteria used in this study included Streptococcus mutans ATCC10449, Streptococcus mutans AU 159, Streptococcus mutans GS-5, Streptococcus mutans GS-5 mutant (^gtf BCD), Streptococcus gordonii Challis, Porphyromonas gingivalis W50, Porphyromonas gingivalis 381, A. actinomycetemcomitans NCTC 9710, Pseudomonas aeruginosa ATCC 17648, and Escherichia coli HB101. One quarter strength (25%) of brain heart infusion broth (BHI, DIFCO Laboratories, Detroit, Mich.) was used for the growth of S. mutans, S. gordonii, A. actinomycetemcomitans, Ps. aeruginosa, and E. coli. For growth of P. gingivalis, tryptic soy broth-yeast extract medium (TSBY, DIFCO Laboratories, Detroit, Mich.) supplemented with cysteine hydrochloride (0.05%), menadione (0.02 μg/ml), hemin (5 μg/ml), and potassium nitrate (0.02%) was used. All bacteria were cultured at 37° C.; Ps. aeruginosa and E. coli were grown aerobically, and the other bacteria, anaerobically. To prepare bacterial cell suspension for antibacterial activity assays, each overnight culture was harvested by centrifuge (3783 g, 10 min), washed once with 10 mM sodium phosphate-buffered saline (PBS, pH 7.2), resuspended in PBS and adjusted to a concentration of 1×10^6 cells/mL.
MICs of the peptides were determined by broth microdilution method as previously described (5). Briefly, two-fold serial dilutions of each peptide were prepared with 25% BHI medium at a volume of 200 μl per well in 96-well flat-bottom microtiter plates (Costar, Cambridge, Mass.). The final concentration of the peptides ranged from 0.78 to 100 μM, and chlorhexidine (CHX), used as a positive control, from 20 to 0.16 μM (10 to 0.078 μg/mL). The microtiter plate was inoculated with bacterial cell suspension with final concentration of 5×10^6 CFU/mL for P. gingivalis and 5×10^5 CFU/mL for the other bacterial species. After incubation at 37° C. for 48 h, the absorbance was measured at 595 nm by using a microplate reader (Model 3550, Bio-Rad, Japan) to assess the cell growth. […] The MIC value represents the median of at least three independent experiments. The minimal bactericidal concentration (MBC) was determined as follows. Aliquot (100 μl) of cell suspension was taken from two wells above MIC, centrifuged, and washed three times with PBS. Then each cell suspension was plated on TSBY agar plate, and bacterial cells were enumerated after incubation at 37° C. for 48 h. The MBC was defined as the lowest concentration of the peptide at which more than 99.9% of cells were killed compared to non-treated control.

Candida strains = type: cell-based
Source text: Killing assays in saliva. […] Saliva without peptides was a blank control.
Activity of peptides in saliva against different candida strains. The in vitro candidacidal activities of MUC7 12-mer-L and D, Hsn5 12-mer, and Magainin-II against four Candida strains in clarified saliva are shown in Table 1. The data are presented as percent loss of cell viability compared to non-treated control. The following observations were made. […] In the presence of PIC, the activity values of MUC7 12-mer-L and of Magainin-II rose close to a 100% for all strains, but not that of Hsn5 peptide, which achieved the similar activity only against the C. albicans (ATCC strain). The activities against the other strains were much lower, in particular against both strains of C. glabrata (30-40%). […] This was true especially in saliva without PIC.

[3] = lowest concentration with 50% or more inhibition of biofilm formation
[4] = lowest concentration with 50% or more eradication of 1-day biofilm

Row | Molecule | MBIC50 (S. mutans GS-5 biofilm) [µg/mL] | MBIC50 (S. mutans GS-5 biofilm; [3]) [µM] | MBEC50 (μg/ml) [1] [µg/mL] | MBEC50 (μM) [1, 4] [µM] | killing (Candida strains) | MBIC50 (S. mutans GS-5 biofilm; GS-5 biofilm, 24 h) [µM] | MBEC50 (μM) ([1]; GS-5 1-day biofilm, 24 h) [µM] | MBC (μM) ([2]; NCTC 9710) [µM] | MBC (μg/ml) ([2]; NCTC 9710) [µg/mL] | MIC (μM) ([2]; NCTC 9710) [µM] | MIC (μg/ml) ([2]; NCTC 9710) [µg/mL] | also measured
1 | GIGKFLHSAKKFGKAFVGEIMNS [Magainin-II] | 62 | 25 | >125 | >50 | – | – | – | – | – | – | – | eradication of 1-day developed biofilm ([1]; at or more than MBEC50): eradication was not observed; MBC (μM) [2]: 50.0 µM; MBC (μg/ml) [2]: 123.5 µg/mL; MIC (μM) [2]: 50.0 µM; MIC (μg/ml) [2]: 123.5 µg/mL
2 | CC(C)C[C@@H](NC(=O)[C@@H](CS)NC(=O)[C@@H](CCCCN)NC(=O)[C@@H](Cc1ccc(O)cc1)NC(=O)[C@@H](CO)NC(=O)[C@@H](CCCCN)NC(=O)[C@H](N)CCCNC(=N)N)C(=O)N[C@H](Cc1c[nH]cn1)C(=O)N[C@H](CCCCN)C(=O)N[C@H](CCCNC(=N)N)C(=O)N[C@H](CS)C(=O)N[C@H](CCCNC(=N)N)C(=O)O [MUC7 12-mer-D] (H-[dR][dK][dS][dY][dK][dC][dL][dH][dK][dR][dC][dR]-OH; N-terminus and C-terminus assumed) | – | – | – | – | ~100% | 6.25 | 25 | >100 | >158 | >100 | >158 | activity (killing) (Candida strains): 47-100%
3 | [H]/N=C(\N/C(=N/[H])NCCCCCCNC(=N)NC(=N)Nc1ccc(Cl)cc1)Nc1ccc(Cl)cc1 [Chlorhexidine, Chlorhexidine digluconate] | 0.625 | 1.25 | >10 | >20 | – | – | – | – | – | – | – | MBC ([2]; read-out: MBC): 20 µM; MBC ([2]; read-out: MBC (μg/ml)): 10.1 µg/mL; MIC ([2]; read-out: MIC): 20 µM; MIC ([2]; read-out: MIC (μg/ml)): 10.1 µg/mL
4 | CC(C)C[C@H](NC(=O)[C@H](CS)NC(=O)[C@H](CCCCN)NC(=O)[C@H](Cc1ccc(O)cc1)NC(=O)[C@H](CO)NC(=O)[C@H](CCCCN)NC(=O)[C@@H](N)CCCNC(=N)N)C(=O)N[C@@H](Cc1c[nH]cn1)C(=O)N[C@@H](CCCCN)C(=O)N[C@@H](CCCNC(=N)N)C(=O)N[C@@H](CS)C(=O)N[C@@H](CCCNC(=N)N)C(=O)O [MUC7 12-mer-L] (H-RKSYKCLHKRCR-OH; N-terminus and C-terminus assumed) | – | – | – | – | 44-80% | 12.5 | 50 | >100 | >158 | >100 | >158 | –
5 | AKRHHGYKRKFH [Hsn5 12-mer] | – | – | – | – | – | 25 | >50 | >100 | >158 | >100 | >158 | MBEC50 (μg/ml) ([1]; GS-5 1-day biofilm, 24 h): >78 µg/mL
